Values of other authors in patent US20060239954A1, “Antimicrobial spray for use on pets” (priority 2005, published 2006).

Columns and labels:
Conditions in all cases: 0.1% aqueous solution
Escherichia coli = test system: Escherichia coli
Staphylococcus aureus = test system: Staphylococcus aureus
Pseudomonas aeruginosa = test system: Pseudomonas aeruginosa

N=C(NCCCCCCNC(=N)NC(=N)Nc1ccc(Cl)cc1)NC(=N)Nc1ccc(Cl)cc1.O=C(O)[C@H](O)[C@@H](O)[C@H](O)[C@H](O)CO.O=C(O)[C@H](O)[C@@H](O)[C@H](O)[C@H](O)CO [Chlorhexidine gluconate, chlorhexidine gluconate]
bactericidal: bactericidal against Escherichia coli (Escherichia coli) | bactericidal against Staphylococcus aureus (Staphylococcus aureus) | bactericidal against Pseudomonas aeruginosa (Pseudomonas aeruginosa)
